A melting point compilation (Tetko et al.; mined from patent text by program, amines drawn as free bases though some values may be those of a salt)

melting point [°C]	Structure (SMILES)
194 to 196	Cn1cnc(C(N)=O)c1NC(=S)NC(=O)c1ccccc1
140 to 142	CN(C)CC(c1ccc(OCc2ccccc2)cc1)C1(O)CCCCC1 (stereo not drawn)
82 to 84	CS(=O)(=O)c1ccc(-c2cc(C(=O)CO[N+](=O)[O-])nn2-c2ccccn2)cc1
69 to 75	C=C1C(=O)C2CCC1(C)C2(C)C (stereo not drawn)
154 to 156	COc1cc([N+](=O)[O-])c(C(=O)c2ccccc2)cc1O
179 to 180	O=C(O)COC1c2ccccc2COc2ccc(OCc3ccc4cc(Cl)ccc4n3)cc21 (stereo not drawn)
128 to 129	COc1ccc2c(c1)c(CC(=O)OCC(=O)NCCO[N+](=O)[O-])c(C)n2C(=O)c1ccc(Cl)cc1
140 to 143	Cc1ccccc1-c1ccc(C(=O)O)cc1C
272 to 274	O=C(/C=C/c1ccc([N+](=O)[O-])cc1)c1cc2ccccc2oc1=O
226	O=C(O)CCCc1cc2nc(Cl)ccc2n1S(=O)(=O)c1ccc2oncc2c1
128 to 129	C=C(C)COc1cc(C)c(NC=O)c(C)c1
276	Cc1ccc(C2CN(c3cc4nc5c(cc4cc3F)c(=O)c(C(=O)O)cn5C)CCN2)cc1C (racemic)
138 to 139	COC(c1ccc(Cl)c2nc3n(c12)CCCN3c1ccc(Cl)cc1Cl)C1CC1 (stereo not drawn)
135 to 138	CN(CCc1[nH]c2ccccc2c1-c1ccccc1)C(=O)CCl
54 to 55	Cc1cc([N+](=O)[O-])c(NC(C)C)c([N+](=O)[O-])c1C(C)C
68 to 69	CCCN(CCC)C(=O)COc1cc(C)nc(-c2ccccc2)n1
233 to 235	O=C(CC1CCCCC1)Nc1c(Cl)ccc2nc(N3CCC(c4noc(=O)[nH]4)CC3)ccc12
120	O=C1N[C@@H](CSSc2ccccc2)C(=O)N2CCC[C@H]12
98	CC(C)(C)OC(=O)N1CCCN(c2ccc([N+](=O)[O-])cc2C#N)CC1
180 to 182	COc1cc(Nc2c(C#N)cnc3cc(C#CCN4CCN(C)CC4)sc23)cc(OC)c1OC
76 to 79	Cc1c(-c2ccccc2)nn(C(C)C(=O)N(C)C)c1C (stereo not drawn)
112 to 114	COC(=O)C=C1NCC(CO)OC1=O (stereo not drawn)
155 to 156	Cc1ccc(S(=O)(=O)NCc2ccccc2CC(=O)O)cc1
186 to 187	COc1c(C)c(N2CCN(c3ccc(C(F)(F)F)cc3)CC2)c(C)c2c1OC(C)(C)C2

melting point [°C]	Structure (SMILES)
138 to 140	CC(C)n1nc(-c2sc(NC(=O)N3CCCCC3)nc2-c2ccccc2)ccc1=O
199 to 201	O=[N+]([O-])c1cccc2cc(O)c(O)cc12
113 to 115	CC(=O)N1CCC(C)(C)C(=O)c2ccc(Cl)cc2CCC1=O
210 to 212	Cc1ccccc1-c1c(NC(=O)Nc2ccc(F)cc2F)c(=O)oc2ccc(Cl)cc12
248	O=C(Nc1cc(-c2ccccc2)on1)Nc1cccc2c1C1CCCCN1C2=O (stereo not drawn)
195 to 196	COC(=O)c1cc(O)nn1C1CCCCC1
166 to 168	CCOc1nc(N2CCNCC2)nc(N2CCSCC2)c1[N+](=O)[O-]
201 to 207	Cc1cnc(NCCc2ccccn2)c(=O)n1NC(=O)CCc1cccc(Cl)c1
140	O=C(Cl)c1cc(Cl)cc2c1OCCO2
162 to 163	CC(=NOCCOc1ccc(CC2SC(=O)NC2=O)cc1)c1ccc2ccccc2n1 (stereo not drawn)
127 to 128	Nc1ccc(C2CCC(=O)CC2)cc1
166 to 172	COC(=O)c1ccc(=O)[nH]c1
183	O=[N+]([O-])c1ccc(C=Cc2nc(Nc3ccccc3)c3ccccc3n2)o1
152 to 154	c1ccc2c(c1)NC1CCCc3onc-2c31 (stereo not drawn)
320	CCCCCc1ccc(C=Cc2cc3sc(C=Cc4ccc(CCCCC)cc4)cc3s2)cc1
75	CC(C)COC(=O)Nc1cc(Cl)cc(Cl)c1
57 to 59	CCCCCCCCCCCCn1nnc(CN(Cc2ccccc2)C(=O)Nc2c(OC)cc(OC)cc2OC)n1
144 to 145	NC(=O)c1ccc(-c2cccc3cc(Cc4cccc(C(F)(F)F)c4)sc23)cn1
159 to 160	COc1ccc([C@@H]2Sc3ccccc3N(CCN(C)C)C(=O)[C@@H]2OC(=O)c2cc(Cl)ccc2[N+](=O)[O-])cc1
191 to 193	NS(=O)(=O)C12CC3CC(CC(C3)C1)C2
105 to 108	Cc1cccc(N)c1[N+](=O)[O-]
45	COc1cc(OC)nc(Oc2cccc(F)c2)n1
> 300	COC(=O)c1cc(N)c(N)cc1OC
217 to 219	COc1ccccc1-c1cc(S(=O)(=O)c2ccc(N)cc2)cc(N2CCCC2)n1

melting point [°C]	Structure (SMILES)
228 to 229	CN1CCCC(NC(=O)c2ccc3[nH]ncc3c2)C1 (stereo not drawn)
140 to 142	COc1c(CN)c2c(c3c1OC(C)(C)C3)C(c1ccccc1)=NC(C)(C)C2
68 to 69	N#CNC(CSCc1ccccn1)=NCCO
158 to 159	O=Cc1c2ccccc2c(CCCl)c2ccccc12
68 to 70	O=c1c2c(oc3ccccc13)C=C2
109 to 111	Cc1nc(N2CCN(Cc3c(C)noc3-c3ccccc3)C2=O)sc1C(=O)NCc1cccnc1
99 to 101	Cc1ccc(S(=O)(=O)N(CC(=O)OCc2ccccc2)c2ccc(Cl)cc2C(=O)c2ccccc2Cl)cc1
156 to 158	CC(C)(CNS(C)(=O)=O)Nc1nc(Cl)ncc1Cl
149 to 150	Cc1nn(C)c(O)c1C(=O)c1ccc(Cl)c(C)c1Cl
142 to 144	COc1ccc2c(c1)CC1(CCC(=O)CC1)C21OCCO1
166 to 168	CC(C)C(C(=O)O)n1sc2ccccc2c1=O (stereo not drawn)
73 to 75	N#CC(=NOC(=O)OCc1ccccc1)c1ccccc1
273 to 279	O=C1Nc2cccnc2Nc2ccsc21
96.2 to 96.8	Cc1ccc(Nc2ccc3c4c(cccc24)CC3)cc1
188 to 190	CCCn1nc2c(N)nc3ccccc3c2c1CC(C)(C)O
78 to 80	CCc1cn2ccccc2c1S(=O)(=O)c1ccc(OCCCN(C)C(C)c2ccc(OC)c(OC)c2)cc1 (stereo not drawn)
104 to 105	Nc1ccc(Br)cc1C(O)c1ccccn1 (stereo not drawn)
224 to 226	Cn1cc(C(=O)NCCC2CCN(S(=O)(=O)NC(=O)NC34CC5CC(CC(C5)C3)C4)CC2)c(=O)n(C)c1=O
205 to 206	CO[C@@H](CCc1nc(-c2ccccc2)oc1C)c1ccc(C=C2SC(=O)NC2=O)cc1
154 to 156	CC(=O)OC1CC2(CCN(CCCC(=O)c3ccc(F)cc3)C2)c2ccccc21 (stereo not drawn)
112 to 113	COc1cc2ccc(CCOS(C)(=O)=O)cc2cc1OC
59.3	N#Cc1ccc([C@H]2CC[C@H](C=C(F)F)CC2)cc1

Structure (SMILES)	melting point [°C]
O=C1Nc2ccc(Cl)cc2C(c2ccccc2)=NC1OCCc1ccc(O)cc1 (stereo not drawn)	222 to 230
Cc1c(C(=O)C(N)=O)c2c(OCC(=O)O)cc3c(c2n1Cc1ccccc1)CCC3	255 to 257
O=c1[nH]c(=O)n(CCCCN2CC=C(c3ccccc3)CC2)c2cc([N+](=O)[O-])ccc12	242 to 244
